The compounds below were run against T1, Recombinant human KIF18A (1-467 His-tagged) protein (Homo sapiens, UniProt Q8NI77) (assay: KIF18A Enzyme Assay: microtubule-stimulated ATPase activity (ADP-Glo)). Settings: 30 nM KIF18A, 75 μM ATP.
T1 construct: Recombinant human KIF18A (1-467 His-tagged) protein; His; made in house
Type: biochemical
Source text: KIF18A Enzyme Assay: Microtubule-stimulated ATPase activity assay is used to measure KIF18A enzyme activity after treatment with compound. Compounds were 2-fold serially diluted in DMSO (Sigma Inc) over 22-point concentration range. Recombinant human KIF18A (1-467 His-tagged) protein was expressed using a baculovirus system and purified by affinity chromatography by Amgen Inc. Concentrations of KIF18A protein, microtubules (MT), and ATP in the reaction were optimized for standardized homogenous enzyme assay using ADP-Glorm Kinase/ATPase Assay Kit (Promega Inc). The assay measures ADP formed from the ATPase reaction. […] Read luminescence using EnVision microplate reader with ultra-luminescence module (Perkin Elmer Inc). Concentration-response curve-fitting and IC50 determination was performed using Genedata Screener Software (Standard 15.0.1, Genedata Inc) with a four-parameter logistic regression fit model.
Table A provides data for compounds exemplified in the present application and priority document thereof, as representative compounds of the present invention, as follows: chemical name (as named by either ACD software or ChemDraw (Professional 15.0)) and biological data (IC50 in μM). Ex. # refers to Example No.

T1 sequence (Q8NI77 1-467): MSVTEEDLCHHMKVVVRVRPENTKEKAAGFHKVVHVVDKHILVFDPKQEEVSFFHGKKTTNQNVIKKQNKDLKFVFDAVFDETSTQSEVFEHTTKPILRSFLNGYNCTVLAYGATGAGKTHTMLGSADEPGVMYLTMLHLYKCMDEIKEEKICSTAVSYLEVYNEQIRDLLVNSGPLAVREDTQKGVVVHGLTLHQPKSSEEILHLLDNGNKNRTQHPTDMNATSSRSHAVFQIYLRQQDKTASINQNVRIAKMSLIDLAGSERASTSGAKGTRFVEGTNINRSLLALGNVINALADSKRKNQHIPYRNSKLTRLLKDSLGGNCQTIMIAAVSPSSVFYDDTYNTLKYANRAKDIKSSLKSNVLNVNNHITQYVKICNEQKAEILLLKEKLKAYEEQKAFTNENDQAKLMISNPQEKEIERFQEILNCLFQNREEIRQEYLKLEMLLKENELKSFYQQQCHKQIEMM
T1 sequence (P02550 whole entry partner): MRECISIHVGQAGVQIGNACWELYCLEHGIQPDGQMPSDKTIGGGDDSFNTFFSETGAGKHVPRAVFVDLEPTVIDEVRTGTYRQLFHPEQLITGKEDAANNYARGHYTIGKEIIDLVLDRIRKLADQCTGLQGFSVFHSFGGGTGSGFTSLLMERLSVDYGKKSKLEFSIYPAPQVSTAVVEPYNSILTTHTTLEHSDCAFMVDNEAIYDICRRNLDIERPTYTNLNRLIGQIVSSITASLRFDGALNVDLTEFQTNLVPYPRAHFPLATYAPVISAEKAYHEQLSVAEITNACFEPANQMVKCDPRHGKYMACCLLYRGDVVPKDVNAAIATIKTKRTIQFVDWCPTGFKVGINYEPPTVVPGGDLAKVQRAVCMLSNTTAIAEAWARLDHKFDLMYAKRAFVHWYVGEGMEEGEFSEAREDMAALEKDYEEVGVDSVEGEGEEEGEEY
T1 sequence (P02554 whole entry partner): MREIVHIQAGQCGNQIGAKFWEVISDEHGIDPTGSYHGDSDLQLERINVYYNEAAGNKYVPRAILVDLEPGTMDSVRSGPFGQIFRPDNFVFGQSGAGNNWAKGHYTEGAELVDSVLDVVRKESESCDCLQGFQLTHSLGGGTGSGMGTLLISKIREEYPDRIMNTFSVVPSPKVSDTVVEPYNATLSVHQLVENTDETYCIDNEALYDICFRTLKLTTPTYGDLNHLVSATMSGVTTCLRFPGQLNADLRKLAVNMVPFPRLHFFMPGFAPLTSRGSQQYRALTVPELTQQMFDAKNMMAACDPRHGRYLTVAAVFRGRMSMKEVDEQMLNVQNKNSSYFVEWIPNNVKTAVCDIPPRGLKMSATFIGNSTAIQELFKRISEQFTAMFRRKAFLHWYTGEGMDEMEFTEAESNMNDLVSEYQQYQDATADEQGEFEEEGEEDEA

| SMILES | IC50 |
| --- | --- |
| CC(C)(C)NS(=O)(=O)c1cccc(NC(=O)c2ccc([C@](C)(O)C(F)(F)F)nc2N2CCC3(CC2)CC3)c1 (single isomer, unassigned) [Example 107-1] | 70 nM |
| CC(C)(C)NS(=O)(=O)c1cccc(NC(=O)c2ccc([C@@](C)(O)C(F)(F)F)nc2N2CCC3(CC2)CC3)c1 (single isomer, unassigned) [Example 107-2] | 97 nM |
| CC(C)(C)NS(=O)(=O)c1cccc(NC(=O)c2ccc([C@](C)(O)CO)nc2N2CCC3(CC2)CC3)c1 (single isomer, unassigned) [Example 109-1] | 87 nM |
| CC(C)(C)NS(=O)(=O)c1cccc(NC(=O)c2ccc([C@@](C)(O)CO)nc2N2CCC3(CC2)CC3)c1 (single isomer, unassigned) [Example 109-2] | 65 nM |
| CC1(C)CCN(c2ncccc2C(=O)Nc2cccc(S(=O)(=O)N3CCCCC3)c2)CC1 [Example 100, 2-(4,4-Dimethylpiperidin-1-yl)-N-(3-(piperidin-1-ylsulfonyl)phenyl)nicotinamide] | 553 nM |
| O=C(Nc1cccc(S(=O)(=O)N2CCCCC2)c1)c1cccnc1N1CCC2(CC1)CC2 [Example 100-1, N-(3-(piperidin-1-ylsulfonyl)phenyl)-2-(6-azaspiro[2.5]octan-6-yl)nicotinamide] | 342 nM |
| CCC1CCN(c2ncccc2C(=O)Nc2cccc(S(=O)(=O)N3CCCCC3)c2)CC1 [Example 100-2, 2-(4-ethylpiperidin-1-yl)-N-(3-(piperidin-1-ylsulfonyl)phenyl)nicotinamide] | 983 nM |
| CCCC1CCN(c2ncccc2C(=O)Nc2cccc(S(=O)(=O)N3CCCCC3)c2)CC1 [Example 100-3, N-(3-(piperidin-1-ylsulfonyl)phenyl)-2-(4-propylpiperidin-1-yl)nicotinamide] | 656 nM |
| O=C(Nc1cccc(S(=O)(=O)N2CCCCC2)c1)c1cccnc1N1CCC2(CCC2)CC1 [Example 100-4, N-(3-(piperidin-1-ylsulfonyl)phenyl)-2-(7-azaspiro[3.5]nonan-7-yl)nicotinamide] | 217 nM |
| O=C(Nc1cccc(S(=O)(=O)N2CCC(F)CC2)c1)c1cccnc1N1CCC2(CCC2)CC1 [Example 100-5, N-(3-((4-fluoropiperidin-1-yl)sulfonyl)phenyl)-2-(7-azaspiro[3.5]nonan-7-yl)nicotinamide] | 160 nM |
| O=C(Nc1cccc(S(=O)(=O)N2CCC(F)(F)CC2)c1)c1cccnc1N1CCC2(CCC2)CC1 [Example 100-6, N-(3-((4,4-difluoropiperidin-1-yl)sulfonyl)phenyl)-2-(7-azaspiro[3.5]nonan-7-yl)nicotinamide] | 90 nM |
| O=C(Nc1cccc(S(=O)(=O)N2CCC(F)(F)CC2)c1)c1cccnc1N1CCC2(CC1)CC2 [Example 100-7, N-(3-((4,4-difluoropiperidin-1-yl)sulfonyl)phenyl)-2-(6-azaspiro[2.5]octan-6-yl)nicotinamide] | 104 nM |
| O=C(Nc1cccc(S(=O)(=O)N2CCC(F)CC2)c1)c1cccnc1N1CCC2(CC1)CC2 [Example 100-8, N-(3-((4-fluoropiperidin-1-yl)sulfonyl)phenyl)-2-(6-azaspiro[2.5]octan-6-yl)nicotinamide] | 259 nM |
| Cc1ccc(NC(=O)c2cccnc2N2CCC(C)(C)CC2)cc1S(=O)(=O)N1CCCCC1 [Example 100-9, 2-(4,4-dimethylpiperidin-1-yl)-N-(4-methyl-3-(piperidin-1-ylsulfonyl)phenyl)nicotinamide] | 282 nM |
| Cc1ccc(NC(=O)c2cccnc2N2CCC3(CC2)CC3)cc1S(=O)(=O)N1CCCCC1 [Example 100-10, N-(4-methyl-3-(piperidin-1-ylsulfonyl)phenyl)-2-(6-azaspiro[2.5]octan-6-yl)nicotinamide] | 211 nM |
| CC(C)NS(=O)(=O)c1cccc(NC(=O)c2cccnc2N2CCC3(CC2)CC3)c1 [Example 100-11, N-(3-(N-isopropylsulfamoyl)phenyl)-2-(6-azaspiro[2.5]octan-6-yl)nicotinamide] | 934 nM |
| CC(C)(C)NS(=O)(=O)c1cccc(NC(=O)c2cccnc2N2CCC3(CC2)CC3)c1 [Example 100-12, N-(3-(N-(tert-butyl)sulfamoyl)phenyl)-2-(6-azaspiro[2.5]octan-6-yl)nicotinamide] | 175 nM |
| Cc1ccc(NC(=O)c2cccnc2N2CCC3(CC2)CC3)cc1S(=O)(=O)NC1CC1 [Example 100-13, N-(3-(N-cyclopropylsulfamoyl)-4-methylphenyl)-2-(6-azaspiro[2.5]octan-6-yl)nicotinamide] | 712 nM |
| O=C(Nc1cccc(S(=O)(=O)C2CCCC2)c1)c1cccnc1N1CCC2(CC1)CC2 [Example 100-14, N-(3-(cyclopentylsulfonyl)phenyl)-2-(6-azaspiro[2.5]octan-6-yl)nicotinamide] | 287 nM |
| CCC1CCN(c2ncccc2C(=O)Nc2cccc(S(=O)(=O)C3CCCC3)c2)CC1 [Example 100-15, N-(3-(cyclopentylsulfonyl)phenyl)-2-(4-ethylpiperidin-1-yl)nicotinamide] | 850 nM |
| CCC1(C)CCN(c2ncccc2C(=O)Nc2cccc(S(=O)(=O)C3CCCC3)c2)CC1 [Example 100-16, N-(3-(cyclopentylsulfonyl)phenyl)-2-(4-ethyl-4-methylpiperidin-1-yl)nicotinamide] | 1010 nM |
| CCCC1CCN(c2ncccc2C(=O)Nc2cccc(S(=O)(=O)C3CCCC3)c2)CC1 [Example 100-17, N-(3-(cyclopentylsulfonyl)phenyl)-2-(4-propylpiperidin-1-yl)nicotinamide] | 778 nM |
| O=C(Nc1cccc(S(=O)(=O)C2CCCC2)c1)c1cccnc1N1CCC2(CCC2)CC1 [Example 100-18, N-(3-(cyclopentylsulfonyl)phenyl)-2-(7-azaspiro[3.5]nonan-7-yl)nicotinamide] | 134 nM |
| O=C(Nc1cccc(S(=O)(=O)C2CCCC2)c1)c1cccnc1N1CCC2(CC1)CC(F)(F)C2 [Example 100-19, N-(3-(cyclopentylsulfonyl)phenyl)-2-(2,2-difluoro-7-azaspiro[3.5]nonan-7-yl)nicotinamide] | 734 nM |
| Cc1ccc(NC(=O)c2cccnc2N2CCC3(CC2)CC3)cc1S(=O)(=O)C1CCCC1 [Example 100-20, N-(3-(cyclopentylsulfonyl)-4-methylphenyl)-2-(6-azaspiro[2.5]octan-6-yl)nicotinamide] | 279 nM |
| O=C(Nc1cccc(S(=O)(=O)C2CCCC2)c1F)c1cccnc1N1CCC2(CC1)CC2 [Example 100-21, N-(3-(cyclopentylsulfonyl)-2-fluorophenyl)-2-(6-azaspiro[2.5]octan-6-yl)nicotinamide] | 760 nM |
| O=C(Nc1cccc(S(=O)(=O)CC2CC2)c1)c1cccnc1N1CCC2(CC1)CC2 [Example 100-22, N-(3-((cyclopropylmethyl)sulfonyl)phenyl)-2-(6-azaspiro[2.5]octan-6-yl)nicotinamide] | 910 nM |
| O=C(Nc1cccc(S(=O)(=O)C2CCCCC2)c1)c1cccnc1N1CCC2(CC1)CC2 [Example 100-23, N-(3-(cyclohexylsulfonyl)phenyl)-2-(6-azaspiro[2.5]octan-6-yl)nicotinamide] | 610 nM |
| O=C(Nc1cccc(S(=O)(=O)C2CCC2)c1)c1cccnc1N1CCC2(CC1)CC2 [Example 100-24, N-(3-(cyclobutylsulfonyl)phenyl)-2-(6-azaspiro[2.5]octan-6-yl)nicotinamide] | 923 nM |
